For assay [1], the target named is T1, GABAA2 receptors (α2, β3, γ2 receptor subunits transfected into Sf9 cells) (Homo sapiens, UniProt P18507+P47869).
T1 construct: host or cells: Sf9 cells (membranes)
Briefly: GABAA2 Binding Method ([3H]-Flunitrazepam displacement). The following applies: [3H]-Flunitrazepam ~2 nM, α2β3γ2 Sf9 membranes, 1 hr at 4° C. The gist of the method:
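Membranes from Sf9 cells expressing α2β3γ2 GABAA receptors incubated with ~2 nM (final) [3H]-flunitrazepam and test compound 1 h at 4 °C, then filtered on GF/B plates with cold-buffer washes. Flumazenil-defined controls; percent of control, IC50 and Ki calculated.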

Another assay concerns the target T2, GABAA receptor α1β2γ2 (Homo sapiens, UniProt P14867+P18507).
T2 construct: expressed in transfected cells; host or cells: Xenopus laevis oocytes injected with cRNA
Nature of the assay: Two-electrode voltage-clamp potentiation of GABA EC10 current in Xenopus oocytes, GABAA1. The class given is cell-based. The following applies: percentage potentiation of GABA EC10 current divided by that of diazepam. The method, then:
GABAA receptors were heterologously expressed in Xenopus oocytes by injecting cRNA corresponding to human α1, α2, α3, α5, β2, P3 and γ2 subunits of the GABAA receptor genes. The specific subunit combinations (subtypes) were as follows: α1β2γ2, α2β3γ2, α3β3γ2, and α5β3γ2. The EC10 of GABA is approximated for each cell. Stability of GABA-mediated (EC10) current is established. Modulatory effect of test compound is determined and compared across subtypes. […] Thus, the assay can characterize modulatory effects and determine subtype selectivity of test compounds on major subtypes of GABAA receptors.
Xenopus laevis frogs (Xenopus I, Kalamazoo, Mich.) were anesthetized using 0.15% tricaine. Surgically removed ovarian lobes were teased out in OR2 solution (82 NaCl, 2.5 KCl, 5 HEPES, 1.5 NaH2PO4, 1 MgCl2, 0.1 EDTA, in mM, pH 7.4). The oocytes were defolliculated by incubation in 25 mL OR2 containing 0.2% collagenase 1A (SIGMA) two times for about 60 minutes on a platform shaker and stored in Leibovitz's L-15 medium. Oocytes were injected the following day in 0.5× Leibovitz's L-15 medium containing […] gentamycin, 10 units/ml penicillin, and […] streptomycin.
Capped cRNAs from the linearized vectors containing human α1, β2 and γ2 subunits of the GABAA receptor genes were mixed in ratio of […]. Oocytes were injected with 25-50 nL of mixed RNA with an appx molar ratio for α1, β2, and γ2 as 1:1:10. Oocyte recordings were done 2-10 days after injection. The same methods apply to subtypes derived from α2β3γ2, α3β3γ2, and α5β3γ2, except for 1:1:1 ratio was used for α, β, and γ subunits.
All measurements were done in a medium containing ND-96 (96 NaCl, 2 KCl, 1.8 CaCl2.2H2O, 1 MgCl2.6H2O, 5 HEPES, in mM, pH 7.5). Two-electrode voltage-clamp recording was carried out using OpusXpress amplifier (Axon Instruments, Foster City, Calif.), which allows simultaneous recording from 8 oocytes. Oocytes were impaled with two electrodes of 1-2 MΩ tip resistance when filled with 3M KCl. Recordings were begun when membrane potential became stable at potentials negative to −50-−60 mV. Membrane potential was held at −60 mV. […] The concentration of GABA corresponded to the EC10 value calculated for each oocyte. The modulator pulses started 30 s before the GABA pulse so as to allow preincubation with the modulator. A set of 3 pulses with just GABA without modulator was given prior to the modulator-containing pulses to define the baseline GABA response. Two oocytes per each experiment were dedicated to observe the effect of diazepam on GABA response to ensure the presence of γ2 subunit in the GABAA pentameric complex, which imparts diazepam sensitivity to the complex.
Current amplitude (i) was measured from baseline to peak using Clampfit (Axon Inst., Foster City, Calif.). Potentiation was calculated as percent change from the baseline GABA current flux 100×(imod/icontrol)−1) where imod=current mediated by modulator+GABA and icontrol=current mediated by GABA alone. […] Similarly, a value of −50% potentiation means the presence of modulator caused a 50% decrease in the control current. Various other data shown here were fitted and plotted using GraphPad Prism (GraphPad Software, Inc. San Diego, Calif.). The percentage potentiation was converted to relative potentiation by dividing it with percentage potentiation value obtained from the same assay with diazepam as a control.
On the technique in general: In two-electrode clamp one electrode senses voltage and the other passes current.

T2 sequence (P14867 28-456): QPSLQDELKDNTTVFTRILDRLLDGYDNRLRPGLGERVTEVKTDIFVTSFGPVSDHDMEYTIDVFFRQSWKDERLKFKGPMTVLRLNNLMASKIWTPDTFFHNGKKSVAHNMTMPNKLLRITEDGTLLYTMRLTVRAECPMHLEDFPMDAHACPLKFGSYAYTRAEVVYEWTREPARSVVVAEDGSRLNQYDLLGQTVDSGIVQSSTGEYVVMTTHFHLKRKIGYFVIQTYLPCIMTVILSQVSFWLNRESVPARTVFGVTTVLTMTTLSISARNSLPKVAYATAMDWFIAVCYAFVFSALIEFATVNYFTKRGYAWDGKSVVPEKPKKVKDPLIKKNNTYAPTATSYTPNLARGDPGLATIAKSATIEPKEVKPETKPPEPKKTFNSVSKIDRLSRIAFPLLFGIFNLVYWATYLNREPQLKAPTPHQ
T2 sequence (P47870 25-512 partner limits assumed): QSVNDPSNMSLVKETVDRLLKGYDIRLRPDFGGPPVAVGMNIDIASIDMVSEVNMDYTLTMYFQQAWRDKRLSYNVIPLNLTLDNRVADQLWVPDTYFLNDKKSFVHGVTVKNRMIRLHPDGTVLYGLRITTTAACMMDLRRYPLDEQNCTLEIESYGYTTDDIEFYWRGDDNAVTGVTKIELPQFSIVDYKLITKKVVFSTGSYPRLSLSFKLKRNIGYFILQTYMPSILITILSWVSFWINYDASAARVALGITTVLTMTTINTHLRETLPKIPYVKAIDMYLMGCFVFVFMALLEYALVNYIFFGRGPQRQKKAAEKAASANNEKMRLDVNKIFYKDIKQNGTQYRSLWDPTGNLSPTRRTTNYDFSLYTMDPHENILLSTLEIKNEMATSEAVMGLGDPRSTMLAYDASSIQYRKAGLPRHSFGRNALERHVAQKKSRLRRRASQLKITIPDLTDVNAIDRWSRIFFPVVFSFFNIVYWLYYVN
T2 sequence (P18507 40-475): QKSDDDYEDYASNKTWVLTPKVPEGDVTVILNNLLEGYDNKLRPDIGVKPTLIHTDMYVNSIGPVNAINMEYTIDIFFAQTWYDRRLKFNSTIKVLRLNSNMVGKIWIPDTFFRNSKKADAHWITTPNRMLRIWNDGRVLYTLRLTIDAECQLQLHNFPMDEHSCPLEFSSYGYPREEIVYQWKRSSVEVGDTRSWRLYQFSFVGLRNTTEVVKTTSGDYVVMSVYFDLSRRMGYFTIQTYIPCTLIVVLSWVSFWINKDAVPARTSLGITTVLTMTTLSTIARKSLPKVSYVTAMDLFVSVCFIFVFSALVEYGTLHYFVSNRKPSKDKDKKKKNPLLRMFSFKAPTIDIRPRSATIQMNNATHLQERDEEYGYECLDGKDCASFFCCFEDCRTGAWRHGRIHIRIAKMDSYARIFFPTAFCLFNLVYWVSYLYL
T1 sequence (P47869 29-451): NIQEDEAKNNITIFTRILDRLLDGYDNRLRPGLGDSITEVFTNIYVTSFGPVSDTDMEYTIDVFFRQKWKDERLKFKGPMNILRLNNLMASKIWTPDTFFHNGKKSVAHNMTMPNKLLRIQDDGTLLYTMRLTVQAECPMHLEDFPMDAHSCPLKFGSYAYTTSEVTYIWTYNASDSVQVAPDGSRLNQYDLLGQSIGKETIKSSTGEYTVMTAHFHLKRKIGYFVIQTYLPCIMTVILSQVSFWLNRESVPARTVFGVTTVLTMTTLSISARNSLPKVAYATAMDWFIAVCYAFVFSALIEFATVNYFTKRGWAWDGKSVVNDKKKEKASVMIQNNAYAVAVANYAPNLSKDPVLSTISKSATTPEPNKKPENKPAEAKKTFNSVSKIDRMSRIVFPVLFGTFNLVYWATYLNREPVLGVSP
T1 sequence (P28472 26-473 partner): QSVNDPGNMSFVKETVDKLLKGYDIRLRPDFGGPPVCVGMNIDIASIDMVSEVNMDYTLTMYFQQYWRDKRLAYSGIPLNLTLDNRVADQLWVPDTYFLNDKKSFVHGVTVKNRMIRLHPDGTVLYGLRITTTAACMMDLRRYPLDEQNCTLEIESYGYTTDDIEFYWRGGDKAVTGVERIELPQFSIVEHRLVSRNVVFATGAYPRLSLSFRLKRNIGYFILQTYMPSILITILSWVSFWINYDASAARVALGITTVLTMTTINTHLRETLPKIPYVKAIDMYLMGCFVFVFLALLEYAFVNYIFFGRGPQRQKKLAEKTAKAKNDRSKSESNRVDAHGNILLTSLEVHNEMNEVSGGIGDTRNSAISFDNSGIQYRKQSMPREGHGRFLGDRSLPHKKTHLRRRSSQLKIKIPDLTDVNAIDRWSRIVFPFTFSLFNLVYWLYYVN
T1 sequence (P18507 40-475): as the sequence (P18507 40-475) above

A word on the Ki: it is the equilibrium dissociation constant of an inhibitor or competing ligand from its target. `CCCN1Cc2nc3c(-c4ccc(OC)c(OC)c4OC)cccc3c(N)c2C1=O` [9-amino-2-propyl-5-(2,3,4-trimethoxyphenyl)-2,3-dihydro-1H-pyrrolo[3,4-b]quinolin-1-one] returned an inhibition constant (Ki) in assay [1] of 49.8 nM. Further, on GABAA receptor α1β2γ2, the “Relative Potentiation for GABAA1” value is given as 0.55.

In turn, `CCCN1Cc2nc3c(-c4ccccc4C(F)(F)F)cccc3c(N)c2C1=O` [9-amino-2-propyl-5-(2-(trifluoromethyl)phenyl)-2,3-dihydro-1H-pyrrolo[3,4-b]quinolin-1-one] had a Ki in assay [1] of 16.6 nM. Further, the “Relative Potentiation for GABAA1” value at GABAA receptor α1β2γ2 was determined as 0.48.

Compound `CCCN1Cc2nc3c(-c4ccccc4C)cccc3c(N)c2C1=O` [9-amino-2-propyl-5-(2-methylphenyl)-2,3-dihydro-1H-pyrrolo[3,4-b]quinolin-1-one] showed a Ki in assay [1] of 5.53 nM. At GABAA receptor α1β2γ2, the “Relative Potentiation for GABAA1” value was 0.35.

The compound `CCCN1Cc2nc3c(-c4cc(OC)c(OC)c(OC)c4)cccc3c(N)c2C1=O` [9-amino-2-propyl-5-(3,4,5-trimethoxyphenyl)-2,3-dihydro-1H-pyrrolo[3,4-b]quinolin-1-one] came in with a Ki in assay [1] of 89.8 nM. Also, the “Relative Potentiation for GABAA1” value at GABAA receptor α1β2γ2 worked out at 0.96.

`CCCN1Cc2nc3c(-c4ccc(C)cc4)cccc3c(N)c2C1=O` [9-amino-2-propyl-5-(4-methylphenyl)-2,3-dihydro-1H-pyrrolo[3,4-b]quinolin-1-one]: affinity in assay [1] was put at a Ki of 80.7 nM. In addition, the “Relative Potentiation for GABAA1” value at GABAA receptor α1β2γ2 turned out to be 0.37.

With `CCCN1Cc2nc3c(-c4ccncc4)cccc3c(N)c2C1=O` [9-amino-2-propyl-5-(pyridin-4-yl)-2,3-dihydro-1H-pyrrolo[3,4-b]quinolin-1-one], the Ki in assay [1] was found to be 24.6 nM. Also, the “Relative Potentiation for GABAA1” value on GABAA receptor α1β2γ2 was determined as 0.43.

`CCCN1Cc2nc3c(-c4ccc5ncccc5c4)cccc3c(N)c2C1=O` [9-amino-2-propyl-5-(quinolin-6-yl)-2,3-dihydro-1H-pyrrolo[3,4-b]quinolin-1-one] displayed a Ki in assay [1] of 19.5 nM. For the same compound, at GABAA receptor α1β2γ2, the “Relative Potentiation for GABAA1” value amounted to 0.29.

In assay [1], `CCCN1Cc2nc3c(-c4ccsc4)cccc3c(N)c2C1=O` [9-amino-2-propyl-5-(thiophen-3-yl)-2,3-dihydro-1H-pyrrolo[3,4-b]quinolin-1-one] registered an inhibition constant Ki of 30.8 nM. In addition, the “Relative Potentiation for GABAA1” value at GABAA receptor α1β2γ2 stood at 0.19.

As for `CCCN1Cc2nc3c(-c4ccc5[nH]ccc5c4)cccc3c(N)c2C1=O` [9-amino-5-(1H-indol-5-yl)-2-propyl-2,3-dihydro-1H-pyrrolo[3,4-b]quinolin-1-one], in assay [1], the inhibitory constant (Ki) is 26.8 nM. In addition, on GABAA receptor α1β2γ2, the “Relative Potentiation for GABAA1” value amounted to 0.55.

In assay [1], `CCCN1Cc2nc3c(-c4cccc(OC)c4OC)cccc3c(N)c2C1=O` [9-amino-5-(2,3-dimethoxyphenyl)-2-propyl-2,3-dihydro-1H-pyrrolo[3,4-b]quinolin-1-one] registered a Ki of 24.5 nM. Besides, the “Relative Potentiation for GABAA1” value at GABAA receptor α1β2γ2 amounted to 0.3.

Turning to `CCCN1Cc2nc3c(-c4ccc(F)cc4F)cccc3c(N)c2C1=O` [9-amino-5-(2,4-difluorophenyl)-2-propyl-2,3-dihydro-1H-pyrrolo[3,4-b]quinolin-1-one], in assay [1], the inhibition constant Ki turned out to be 14.9 nM. The “Relative Potentiation for GABAA1” value on GABAA receptor α1β2γ2 is 0.39.

In the case of `COc1ccc(CN2Cc3nc4c(-c5ccc(OC)cc5OC)cccc4c(N)c3C2=O)cc1` [9-amino-5-(2,4-dimethoxyphenyl)-2-(4-methoxybenzyl)-2,3-dihydro-1H-pyrrolo[3,4-b]quinolin-1-one], the Ki in assay [1] was 32.1 nM. Moreover, the “Relative Potentiation for GABAA1” value at GABAA receptor α1β2γ2 stood at 0.25.

In assay [1], `CCCN1Cc2nc3c(-c4ccc(OC)cc4OC)c(F)ccc3c(N)c2C1=O` [9-amino-5-(2,4-dimethoxyphenyl)-6-fluoro-2-propyl-2,3-dihydro-1H-pyrrolo[3,4-b]quinolin-1-one] returned an inhibition constant (Ki) of 13.9 nM. In addition, the “Relative Potentiation for GABAA1” value on GABAA receptor α1β2γ2 stood at 0.39.

Take `CCCN1Cc2nc3c(-c4cnc(OC)nc4OC)c(F)ccc3c(N)c2C1=O` [9-amino-5-(2,4-dimethoxypyrimidin-5-yl)-6-fluoro-2-propyl-2,3-dihydro-1H-pyrrolo[3,4-b]quinolin-1-one]: the affinity in assay [1] corresponds to a Ki of 8.89 nM. In addition, the “Relative Potentiation for GABAA1” value on GABAA receptor α1β2γ2 was found to be 0.22.

In the case of `COc1ccc(CN2Cc3nc4c(-c5cc(F)c(OC)cc5F)cccc4c(N)c3C2=O)cc1` [9-amino-5-(2,5-difluoro-4-methoxyphenyl)-2-(4-methoxybenzyl)-2,3-dihydro-1H-pyrrolo[3,4-b]quinolin-1-one], the inhibitory constant (Ki) in assay [1] was found to be 48.4 nM. In addition, the “Relative Potentiation for GABAA1” value at GABAA receptor α1β2γ2 was found to be 0.29.

In assay [1], `COc1cccc(CN2Cc3nc4c(-c5cc(OC)ccc5OC)cccc4c(N)c3C2=O)c1` [9-amino-5-(2,5-dimethoxyphenyl)-2-(3-methoxybenzyl)-2,3-dihydro-1H-pyrrolo[3,4-b]quinolin-1-one] registered a Ki of 26.9 nM. In addition, the “Relative Potentiation for GABAA1” value at GABAA receptor α1β2γ2 is on record as 0.25.

`CCCN1Cc2nc3c(-c4c(F)cc(OC)cc4F)cccc3c(N)c2C1=O` [9-amino-5-(2,6-difluoro-4-methoxyphenyl)-2-propyl-2,3-dihydro-1H-pyrrolo[3,4-b]quinolin-1-one] yielded an inhibition constant Ki in assay [1] of 12.2 nM. Besides, the “Relative Potentiation for GABAA1” value on GABAA receptor α1β2γ2 came out at 0.16.

The compound `CCCN1Cc2nc3c(-c4ccc(F)nc4F)cccc3c(N)c2C1=O` [9-amino-5-(2,6-difluoropyridin-3-yl)-2-propyl-2,3-dihydro-1H-pyrrolo[3,4-b]quinolin-1-one] registered a Ki in assay [1] of 75.3 nM. In addition, the “Relative Potentiation for GABAA1” value on GABAA receptor α1β2γ2 is 0.21.

Turning to `CCCN1Cc2nc3c(-c4cc(F)cnc4Cl)cccc3c(N)c2C1=O` [9-amino-5-(2-chloro-5-fluoropyridin-3-yl)-2-propyl-2,3-dihydro-1H-pyrrolo[3,4-b]quinolin-1-one], the Ki in assay [1] was determined as 16.3 nM. The “Relative Potentiation for GABAA1” value at GABAA receptor α1β2γ2 was determined as 0.38.

As for `CCCN1Cc2nc3c(-c4cc(OC)cnc4Cl)cccc3c(N)c2C1=O` [9-amino-5-(2-chloro-5-methoxypyridin-3-yl)-2-propyl-2,3-dihydro-1H-pyrrolo[3,4-b]quinolin-1-one], in assay [1], the inhibition constant Ki was 9.72 nM. In addition, the “Relative Potentiation for GABAA1” value on GABAA receptor α1β2γ2 is on record as 0.45.

`Cc1ccc(-c2cccc3c(N)c4c(nc23)CN(C2CC2)C4=O)c(Cl)n1` [9-amino-5-(2-chloro-6-methylpyridin-3-yl)-2-cyclopropyl-2,3-dihydro-1H-pyrrolo[3,4-b]quinolin-1-one] registered a Ki in assay [1] of 7.87 nM. Moreover, at GABAA receptor α1β2γ2, the “Relative Potentiation for GABAA1” value was 0.4.

Consider `CCCN1Cc2nc3c(-c4ccccc4Cl)cccc3c(N)c2C1=O` [9-amino-5-(2-chlorophenyl)-2-propyl-2,3-dihydro-1H-pyrrolo[3,4-b]quinolin-1-one], for which the Ki in assay [1] amounted to 4.82 nM. The “Relative Potentiation for GABAA1” value on GABAA receptor α1β2γ2 was determined as 0.35.

For `CCCN1Cc2nc3c(-c4cccnc4OCC)cccc3c(N)c2C1=O` [9-amino-5-(2-ethoxypyridin-3-yl)-2-propyl-2,3-dihydro-1H-pyrrolo[3,4-b]quinolin-1-one], in assay [1], the affinity corresponds to a Ki of 15 nM. Besides, the “Relative Potentiation for GABAA1” value at GABAA receptor α1β2γ2 was 0.56.

As to `COc1ccc(CN2Cc3nc4c(-c5cccc(OC)c5F)cccc4c(N)c3C2=O)cc1` [9-amino-5-(2-fluoro-3-methoxyphenyl)-2-(4-methoxybenzyl)-2,3-dihydro-1H-pyrrolo[3,4-b]quinolin-1-one], in assay [1], the affinity corresponds to a Ki of 8.03 nM. Further, the “Relative Potentiation for GABAA1” value at GABAA receptor α1β2γ2 stood at 0.36.

With `CCCN1Cc2nc3c(-c4cccc(OC)c4F)cccc3c(N)c2C1=O` [9-amino-5-(2-fluoro-3-methoxyphenyl)-2-propyl-2,3-dihydro-1H-pyrrolo[3,4-b]quinolin-1-one], the inhibition constant (Ki) in assay [1] was found to be 11.5 nM. In addition, the “Relative Potentiation for GABAA1” value at GABAA receptor α1β2γ2 is recorded as 0.2.

The values are drawn from patent US20080318943A1, “Compounds and Uses Thereof - 848” (ASTRAZENECA AB, priority 2007, published 2008).
